Molecules are shown by their SMILES.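 How tested: cells in 96-well plates exposed to compound for 48 hours at five concentrations. GI50: concentration for 50% inhibition of growth.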 Active and inactive are the calls of the source. Cut-off read from the data, not from the text of the source: active = GI50 up to about 1.1 µM and inactive = higher.

Test systems include HCC 2998; SK-MEL-5; HT-29; SR; COLO 205; U-251; A549; UACC-62; SNB-75; NCI/ADR-RES; SK-MEL-2; UO-31; SN12C; NCI-H460; NCI-H522; RPMI-8226; SF-539; HL-60; Malme-3M; A498.
What all share (test): NCI-60 cell line screen, 48 h

In the case of `CC1(C)O[C@@H](CP(c2ccc3ccccc3c2)c2ccc3ccccc3c2)[C@H](CP(c2ccc3ccccc3c2)c2ccc3ccccc3c2)O1`, the GI50 with HCC 2998 is > 100 µM (inactive); in the assay on SK-MEL-5, 73.5 µM (inactive); with HT-29, 85.5 µM (inactive); in the assay with SR it was 77.8 µM (inactive); in the assay on COLO 205, > 100 µM (inactive); in the assay on U-251, > 100 µM (inactive). Also, the GI50 in the assay with A549, in the assay on UACC-62, in the assay with SNB-75, with NCI/ADR-RES, in the assay on SK-MEL-2 and in the assay on UO-31 was > 100 µM (inactive) each time. Besides, the results for the GI50 in the assay on SN12C, with NCI-H460 and in the assay on NCI-H522 were > 100 µM (inactive), > 100 µM (inactive) and 25.5 µM (inactive), respectively.

Consider `O=C(c1ccccc1)c1ccc2[nH]c(-c3c(Cl)c(Cl)c(Cl)c(Cl)c3C(=O)N/N=C/c3ccc(Cl)cc3)nc2c1`, for which the GI50 is 19.3 µM (inactive) in the assay on RPMI-8226; 17.2 µM (inactive) in the assay on SK-MEL-5; 35.2 µM (inactive) with HT-29; 28.2 µM (inactive) in the assay with SR; 28.1 µM (inactive) with COLO 205; 44.1 µM (inactive) with U-251. In addition, the GI50 was 33 µM (inactive) in the assay with A549; 47 µM (inactive) with SNB-75; 64.9 µM (inactive) in the assay on SF-539; 4.06 µM (inactive) in the assay on HL-60; 37.4 µM (inactive) in the assay with Malme-3M; 47.8 µM (inactive) with NCI/ADR-RES. In addition, the GI50 with SK-MEL-2 was 29.4 µM (inactive); in the assay with UO-31, 42.6 µM (inactive); with SN12C, 39.2 µM (inactive); in the assay with NCI-H522, 19.5 µM (inactive).

In the case of `CC1(C)/C(=N\NC(N)=O)C2CCC1C2` (stereo not drawn), the GI50 in the assay with RPMI-8226, in the assay with SK-MEL-5, with HT-29, in the assay on SR, in the assay on COLO 205 and in the assay on U-251 was > 100 µM (inactive) each time. Also, the GI50 in the assay with A549, in the assay with UACC-62, with SNB-75, in the assay on HL-60, with Malme-3M and in the assay with NCI/ADR-RES was > 100 µM (inactive) in each case. For the same compound, the GI50 with SK-MEL-2, with UO-31, in the assay with NCI-H460 and in the assay with NCI-H522 was > 100 µM (inactive) in each case.

As for `COc1cc(C2c3cc4c(cc3C(=O)C3CCC(=O)N32)OCO4)cc(OC)c1O` (stereo not drawn), the GI50 in the assay with RPMI-8226, in the assay on HT-29, with SR, with COLO 205, in the assay with U-251 and with A549 was > 50 µM (inactive) throughout. In addition, the GI50 in the assay on UACC-62, in the assay with A498, in the assay on SNB-75, in the assay with SF-539, with HL-60 and in the assay on NCI/ADR-RES was > 50 µM (inactive) throughout. Also, the GI50 in the assay with SK-MEL-2, in the assay on UO-31, in the assay with SN12C and in the assay with NCI-H460 was > 50 µM (inactive) each time.

Turning to `O=C(Nc1ccc(N=C=S)cc1Cl)c1cc(Br)cc(Br)c1O`, the GI50 was 23.9 µM (inactive) in the assay with SK-MEL-5; 19.8 µM (inactive) in the assay with HT-29; 28.6 µM (inactive) with SR; 27.2 µM (inactive) in the assay on COLO 205; 22.2 µM (inactive) in the assay with U-251; 25.8 µM (inactive) in the assay with A549. Also, the GI50 in the assay on UACC-62 is 18.9 µM (inactive); in the assay with SNB-75, 31.1 µM (inactive); in the assay with SF-539 it was 23.9 µM (inactive); with HL-60, 34.5 µM (inactive); in the assay on Malme-3M it was 37.8 µM (inactive); in the assay on NCI/ADR-RES it was 24.2 µM (inactive). Moreover, the GI50 in the assay on SK-MEL-2 was 31.6 µM (inactive); in the assay with UO-31 it was 30.3 µM (inactive); with SN12C, < 0.01 µM (active); in the assay with NCI-H460 it was 32.6 µM (inactive); in the assay on NCI-H522 it was 31.3 µM (inactive).

Regarding `Cc1ccc(N/N=C/C2=CC(C)(C)C(C#N)(C#N)C(O)=C2C#N)cc1`, the GI50 is 22.2 µM (inactive) with RPMI-8226; 37.8 µM (inactive) with HCC 2998; 40.7 µM (inactive) in the assay with SK-MEL-5; 37.8 µM (inactive) in the assay on HT-29; 14.3 µM (inactive) in the assay on SR; 26.9 µM (inactive) with COLO 205. The GI50 is 36.5 µM (inactive) in the assay with A549; 30.4 µM (inactive) in the assay with UACC-62; 45.5 µM (inactive) in the assay on SNB-75; > 100 µM (inactive) in the assay with SF-539; 17.3 µM (inactive) in the assay with HL-60; > 100 µM (inactive) with Malme-3M. Moreover, the GI50 in the assay with NCI/ADR-RES is 56 µM (inactive); in the assay with UO-31, 37.7 µM (inactive); in the assay on SN12C, > 100 µM (inactive); in the assay on NCI-H460, 24.6 µM (inactive); with NCI-H522 it was > 100 µM (inactive).

`C[n+]1c2ccccc2n2c3ccccc3c(NCc3ccco3)c(C#N)c21`: the GI50 in the assay on RPMI-8226 is 0.546 µM (active); with HCC 2998, 0.659 µM (active); in the assay with SK-MEL-5, 2.78 µM (inactive); in the assay on HT-29, 2.7 µM (inactive); in the assay on COLO 205, 1.67 µM (inactive); with U-251, 2 µM (inactive). Besides, the GI50 in the assay with A549 was 3.15 µM (inactive); in the assay with UACC-62 it was 2.84 µM (inactive); in the assay on A498, 6.08 µM (inactive); with SNB-75, 2.02 µM (inactive); in the assay on SF-539, 0.959 µM (active); in the assay on HL-60, 3.17 µM (inactive). Besides, the GI50 with Malme-3M was 2.43 µM (inactive); with NCI/ADR-RES it was 2.2 µM (inactive); with SK-MEL-2, 2 µM (inactive); in the assay on UO-31, 1.22 µM (inactive); with SN12C it was 1.23 µM (inactive); in the assay on NCI-H460, 1.1 µM (active). In addition, the GI50 in the assay on NCI-H522 is 0.678 µM (active).

In the case of `CCNC(=S)NNC(=O)c1ccccc1Nc1ccccc1C(=O)NNC(=S)NCC`, the GI50 with RPMI-8226, with HCC 2998, with SK-MEL-5, in the assay with HT-29, in the assay with SR and with COLO 205 was > 100 µM (inactive) each time. Besides, the GI50 in the assay with U-251, in the assay with A549, in the assay with UACC-62, in the assay with SNB-75, with HL-60 and in the assay with Malme-3M was > 100 µM (inactive) in each case. Also, the GI50 in the assay with NCI/ADR-RES, in the assay on SK-MEL-2, with UO-31, with SN12C, in the assay on NCI-H460 and in the assay on NCI-H522 was > 100 µM (inactive) each time.

For `CC(=O)OCC1OC(n2c(C)c(/N=N/c3ccc(Cl)cc3)c(C)c(C#N)c2=S)C(OC(C)=O)C(OC(C)=O)C1OC(C)=O` (stereo not drawn), the GI50 in the assay on RPMI-8226 is > 100 µM (inactive); with HCC 2998, > 100 µM (inactive); in the assay on SK-MEL-5, 64.3 µM (inactive); in the assay with HT-29 it was > 100 µM (inactive); in the assay with SR, > 100 µM (inactive); in the assay on COLO 205, > 100 µM (inactive). Besides, the GI50 with U-251 is 28.1 µM (inactive); in the assay on A549, 64.4 µM (inactive); with UACC-62, 38.4 µM (inactive); with SNB-75, 20.1 µM (inactive); in the assay with SF-539, 44.1 µM (inactive); in the assay with HL-60, > 100 µM (inactive). In addition, the GI50 in the assay with Malme-3M was > 100 µM (inactive); in the assay with NCI/ADR-RES it was > 100 µM (inactive); in the assay with SK-MEL-2, 34.2 µM (inactive); in the assay on UO-31 it was > 100 µM (inactive); in the assay with SN12C, > 100 µM (inactive); in the assay with NCI-H460 it was > 100 µM (inactive).

Consider `CCCCOC(=O)C(O)Cc1ccoc1` (stereo not drawn), for which the GI50 in the assay with RPMI-8226, in the assay on HCC 2998, in the assay with SK-MEL-5, with HT-29, with COLO 205 and in the assay with U-251 was > 100 µM (inactive) each time. Further, the GI50 with A549, with UACC-62, with A498, in the assay on SNB-75, with SF-539 and in the assay with HL-60 was > 100 µM (inactive) throughout. For the same compound, the GI50 in the assay with Malme-3M, with NCI/ADR-RES, in the assay on SK-MEL-2, with UO-31, with SN12C and in the assay on NCI-H460 was > 100 µM (inactive) in each case. Also, the GI50 in the assay on NCI-H522 is > 100 µM (inactive).

With `CC(O)CCCCC(O)CCC[C@H](O)[C@H]1CCC([C@H]2CCC([C@@H](O)CCCCCCCCCCCCC3=C[C@H](C)OC3=O)O2)O1` (stereo partly drawn), the GI50 in the assay with HCC 2998 was 13.2 µM (inactive); with SK-MEL-5 it was 7.93 µM (inactive); with HT-29, 10.7 µM (inactive); in the assay with SR it was 0.0075 µM (active); in the assay with COLO 205 it was 11.1 µM (inactive); in the assay with U-251 it was 10.8 µM (inactive). Besides, the GI50 was 7.94 µM (inactive) in the assay on A549; 10.9 µM (inactive) in the assay with UACC-62; 9.12 µM (inactive) with SNB-75; 10.4 µM (inactive) with SF-539; 9.79 µM (inactive) in the assay with HL-60; 2.44 µM (inactive) in the assay on NCI/ADR-RES. Besides, the GI50 was 8.77 µM (inactive) in the assay on SK-MEL-2; 9.44 µM (inactive) in the assay on UO-31; 12.2 µM (inactive) in the assay with SN12C; 8.22 µM (inactive) in the assay on NCI-H460; 7.64 µM (inactive) in the assay with NCI-H522.
